How the values were obtained:
[1] = system: cultured myeloid (K-562) cells from patients with chronic myeloid leukemia; experiment: ratio of [1-13C1]-D-ribose to [1,2-13C2]-D-ribose (m1/m2) in cultured CML myeloid cells exposed to Gleevec, ribose mass spectral analysis; assay type: cell-based, human; conditions: myeloid cells from two patients resistant to Gleevec, increasing concentrations of Gleevec; cut off 0.65 for resistance
Source text: FIG. 5 depicts the results of studies comparing the ratio of [1-^13C1]-D-ribose to [1,2-^13C2]-D-ribose in cultured myeloid cells from patients with chronic myeloid leukemia using increasing concentrations of Gleevec (“x” axis). The set of vertical bars on the left are observed values of m1 and the set of vertical bars on the right are observed values of m2. The calculated ratios of m1/m2 are provided above the horizontal lines. In this experiment, a cut off point of 0.65 to detect resistance was used to identify Gleevec resistance. Cells from two patients resistant to Gleevec have m1/m2 ratios below 0.65, as indicated by an asterisk.
(§1) When the ratio of [1-^13C1]-D-ribose to [1,2-^13C2]-D-ribose is less than 1 (e.g., 0.5) the patient is at risk of having a reduced response to treatment with a cancer therapeutic such as imatinib. The increased risk of developing a reduced response to imatinib includes any increased risk. In embodiments of the invention, the increased risk is about a 10% decrease in the ratio described above indicating the risk of developing imatinib resistance. In other embodiments, the increased risk is indicated by about a 10%, 15%, 20%, 25%, 50%, 75%, 85%, 90%, 95%, 98%, 99%, or 99.9% decrease in the ratio of [1-^13C1]-D-ribose to [1,2-^13C2]-D-ribose. […]

[2] = system: rat neuroblastoma (C6) cells; experiment: ratio of [1-13C1]-D-ribose to [1,2-13C2]-D-ribose (m1/m2) in cultured cells contacted with [1,2-13C2]-D-glucose; assay type: cell-based; conditions: untreated ratio 2.35
Source text: FIG. 6 depicts the results of in culture studies comparing the ratio of [1-^13C1]-D-ribose to [1,2-^13C2]-D-ribose in rat neuroblastoma (C6) cells which are sensitive to imatinib treatment. The increased ratio of m1/m2 ^13C in ribose indicates sensitivity to Gleevec, which is further increased by Hydroxyurea treatment, which is a well known chemotherapeutic agent for the treatment of various human cancers. The set of vertical bars on the left are observed values of m1 and the set of vertical bars on the right are observed values of m2. The calculated ratios of m1/m2 are provided above the horizontal lines.
as §1

LAMA84r cells = conditions: high doses; cited from earlier work
K562r cells = conditions: high doses; cited from earlier work

Compound	m1/m2 ratio [1]	ratio of [1-13C1]-D-ribose to [1,2-13C2]-D-ribose (m1/m2) ([2]; 3.0 μM Gleevec)	response to Gleevec treatment (LAMA84r cells)	response to Gleevec treatment (K562r cells)	ratio of [1-13C1]-D-ribose to [1,2-13C2]-D-ribose (m1/m2) ([2]; 100 μM hydroxyurea)
Cc1ccc(NC(=O)c2ccc(CN3CCN(C)CC3)cc2)cc1Nc1nccc(-c2cccnc2)n1 [Gleevec, imatinib]	below 0.65	2.97	do not respond well even to high doses	do not respond well even to high doses	
NC(=O)NO [hydroxyurea]					3.59
